Assay results from paper PMC11363738 (Journal of Enzyme Inhibition and Medicinal Chemistry, 2024).

Tests used:
SARS-CoV-2 3CL^pro = biological target: T1, SARS-CoV-2 3CL^pro (Severe acute respiratory syndrome coronavirus 2, UniProt P0DTD1); test: SARS-CoV-2 3CLpro FRET activity assay (Beyotime inhibitor screening kit); type: biochemical; conditions: for IC50: FRET assay, averages of three independent experiments; for inhibition at 1 µM: n = 3, read-out: rate of inhibiting SARS-CoV-2 3CL^pro
T1 construct: purchased Beyotime, China P0315M

[1] = test system: SARS-CoV-2 Omicron virus BA.5; test: Antiviral activity in Vero E6 cells, preventive model (viral RNA by qRT-PCR); type: cell-based; conditions: Severe acute respiratory syndrome coronavirus 2, Vero C1008; read-out: EC50 (concentration for 50% reduction in viral infectivity), preventive model
[2] = test system: SARS-CoV-2 Omicron virus BA.5; test: microbe, parasite or virus in culture; type: cell-based; conditions: for EC50: Severe acute respiratory syndrome coronavirus 2, Vero C1008, 96 h, ND = not detectable, inactive at 10 μM, mean ± SD, read-out: EC50, therapeutic model
SARS-CoV-2 = test system: SARS-CoV-2; set-up: method as in PMID 34131140; conditions: read-out: intracellular antiviral activity EC50; cited from earlier work
rats and mice [3] = conditions: cited from earlier work
rats and mice [4] = test system: rats and mice; set-up: method as in PMID 12776572; conditions: cited from earlier work
rats and mice [5] = test system: rats and mice; set-up: method as in earlier work; conditions: cited from earlier work
[6] = Cytotoxicity against Vero E6 cells, CCK-8 assay (preventive model); conditions: African green monkey
[7] = Normal cytotoxicity test in Vero E6 cells, therapeutic model (Celltiter-Glo, CC plate); conditions: African green monkey, Vero E6 cells (uninfected)
in vitro [8] = conditions: African green monkey
in vitro [9] = conditions: African green monkey; remark: listed apart in the source

## CCOC(=O)CCCCCCCOc1cc(O)c2c(=O)c(O)c(-c3cc(O)c(O)c(O)c3)oc2c1 [Compound 10, Ethyl 8-((3,5-dihydroxy-4-oxo-2–(3,4,5-trihydroxyphenyl)-4H-chromen-7-yl)oxy)octan-oate]
SARS-CoV-2 3CL^pro
  IC50: 2.36 ± 0.13 µM
[1]
  EC50: 46.1 ± 4.67 µM
[2]
  EC50: 11.5 ± 3.68 µM

## CCOC(=O)CCCCCCOc1cc(O)c2c(=O)c(O)c(-c3cc(O)c(O)c(O)c3)oc2c1 [Compound 9, Ethyl 7-((3,5-dihydroxy-4-oxo-2–(3,4,5-trihydroxyphenyl)-4H-chromen-7-yl)oxy)heptano-ate]
SARS-CoV-2 3CL^pro
  IC50: 1.68 ± 0.19 µM

## O=C1c2c(O)cc(O)cc2O[C@H](c2cc(O)c(O)c(O)c2)[C@H]1O [Compound 1, Dihydromyricetin]
[1]
  EC50: 21.2 ± 0.62 µM
[2]
  inhibitory activity against Omicron virus, therapeutic model: did not have significant inhibitory activity
SARS-CoV-2
  EC50: 13.6 µM
Rats and mice [3]
  result in acute oral toxicity tests: negative
Rats and mice [4]
  result in long-term toxicity tests: negative
Rats and mice [5]
  result in genotoxicity tests: negative
[6]
  CC50 at 24 h: > 100 µM
[7]
  CC50 at 4 days: > 100 µM

## COC(=O)CCCCCOc1cc(O)c2c(=O)c(O)c(-c3cc(O)c(O)c(O)c3)oc2c1 [Compound 5, Methyl 6-((3,5-dihydroxy-4-oxo-2–(3,4,5-trihydroxyphenyl)-4H-chromen-7-yl)oxy) hexano-ate]
SARS-CoV-2 3CL^pro
  IC50: 1.69 ± 0.16 µM
[1]
  EC50: 37.6 ± 2.05 µM
In vitro [8]
  CC50: > 100 µM
In vitro [9]
  CC50: > 100 µM

## COC(=O)COc1cc(O)c2c(=O)c(O)c(-c3cc(O)c(O)c(O)c3)oc2c1 [Compound 3, Methyl 2-((3,5-dihydroxy-4-oxo-2–(3,4,5-trihydroxyphenyl)-4H-chromen-7yl)oxy)acetate]
SARS-CoV-2 3CL^pro
  IC50: 0.72 ± 0.04 µM
  inhibition at 1 µM: > 50%
[1]
  EC50: 15.8 ± 0.92 µM
In vitro [8]
  CC50: > 100 µM
In vitro [9]
  CC50: > 100 µM

## O=c1c(O)c(-c2cc(O)c(O)c(O)c2)oc2cc(O)cc(O)c12 [Compound 2, Myricetin]
[1]
  EC50: 12.2 ± 0.23 µM
[2]
  inhibitory activity against Omicron virus, therapeutic model: did not have significant inhibitory activity
[6]
  CC50 at 24 h: > 100 µM
[7]
  CC50 at 4 days: > 100 µM

## CCC(CC)COC(=O)[C@H](C)N[P@](=O)(OC[C@H]1O[C@@](C#N)(c2ccc3c(N)ncnn23)[C@H](O)[C@@H]1O)Oc1ccccc1 [Remdesivir]
[1]
  EC50: 0.64 ± 0.12 µM
[2]
  EC50: 0.91 ± 0.39 µM
[6]
  CC50 at 24 h: > 100 µM
[7]
  CC50 at 4 days: 49.7 ± 0.13 µM

## CCOC(=O)COc1cc(O)c2c(=O)c(O)c(-c3cc(O)c(O)c(O)c3)oc2c1 [Compound 6, Ethyl 2-((3,5-dihydroxy-4-oxo-2–(3,4,5-trihydroxyphenyl)-4H-chromen-7-yl)oxy)acetate]
SARS-CoV-2 3CL^pro
  IC50: 0.95 ± 0.12 µM
  inhibition at 1 µM: > 50%

## COC(=O)CCCOc1cc(O)c2c(=O)c(O)c(-c3cc(O)c(O)c(O)c3)oc2c1 [Compound 4, Methyl4-((3,5-dihydroxy-4-oxo-2–(3,4,5-trihydroxyphenyl)-4H-chromen-7-yl)oxy)butano-ate]
SARS-CoV-2 3CL^pro
  IC50: 1.26 ± 0.09 µM

## CCOC(=O)CCCCCOc1cc(O)c2c(=O)c(O)c(-c3cc(O)c(O)c(O)c3)oc2c1 [Compound 8, Ethyl 6-((3,5-dihydroxy-4-oxo-2–(3,4,5-trihydroxyphenyl)-4H-chromen-7-yl)oxy)hexane-ate]
SARS-CoV-2 3CL^pro
  IC50: 1.73 ± 0.11 µM

## CCOC(=O)CCCOc1cc(O)c2c(=O)c(O)c(-c3cc(O)c(O)c(O)c3)oc2c1 [Compound 7, Ethyl 4-((3,5-dihydroxy-4-oxo-2–(3,4,5-trihydroxyphenyl)-4H-chromen-7-yl)oxy)butano-ate]
SARS-CoV-2 3CL^pro
  IC50: 1.53 ± 0.14 µM
